Experiments:
[1] = tested on: breast carcinoma cell line HBL-100; settings: cited from earlier work
Ki-1 = settings: cited from earlier work
[2] = tested on: human promyelocytic leukemia HL-60; settings: cited from earlier work
[3] = tested on: chronic lymphocytic leukemia; settings: cited from earlier work
neuroblastoma = settings: cited from earlier work
murine fibrosarcoma V7T = settings: cited from earlier work
[4] = tested on: hormonally refractory prostate adenocarcinoma PC3; settings: cited from earlier work
astrocytoma = settings: cited from earlier work
medulloblastoma = settings: cited from earlier work
malignant melanoma = settings: cited from earlier work
ovarian carcinoma = settings: cited from earlier work
[5] = tested on: premalignant mesenchymal C3H 10T1/2 cells; settings: cited from earlier work
[6] = tested on: K562 erythroleukemia cells; settings: cited from earlier work
[7] = peak plasma level after oral administration to rats; assay type: in vivo; settings: orally administered to rats
Method: First, Burzynski et al. (Drugs Exptl. Clin. Res. 12 Suppl. 1, 11-16 (1986)) reported complete colony reduction of HBL-100 and Ki No. 1 tumor cell lines with 5.0 mg/mL of either phenylacetic acid or antineoplaston AS2-1. […] Under typical administration regimes of antineoplaston AS2-1, the peak plasma levels of phenylacetic acid are approximately […], roughly […] less than the cytostatic concentration observed in tissue culture experiments.

[8] = tested on: human breast cancer cell line MDA-MB-231; settings: cited from earlier work
KMCH-1 = settings: cited from earlier work
KYN-1 = settings: cited from earlier work
KIM-1 = settings: cited from earlier work
rat Nb2 lymphoma = settings: cited from earlier work
[9] = tested on: human colon adenocarcinoma; settings: cited from earlier work
S180 cells = settings: mice implanted with S180 cells; cited from earlier work
cancer = settings: clinical trials; cited from earlier work
[10] = cited from earlier work
[11] = orally administered to rats; cited from earlier work
[12] = cited from earlier work; remark: listed apart in the source

O=C(O)Cc1ccccc1 [phenylacetic acid]
concentration giving complete colony reduction [1]: 5.0 mg/mL
growth inhibition [1]: dose-dependent growth inhibition
concentration giving complete colony reduction (Ki-1; Ki No. 1): 5.0 mg/mL
growth inhibition (Ki-1; Ki-1): dose-dependent growth inhibition
terminal differentiation or phenotypic reversion [2]: promoted terminal differentiation or phenotypic reversion
terminal differentiation or phenotypic reversion [3]: promoted terminal differentiation or phenotypic reversion
terminal differentiation or phenotypic reversion (neuroblastoma): promoted terminal differentiation or phenotypic reversion
terminal differentiation or phenotypic reversion (murine fibrosarcoma V7T): promoted terminal differentiation or phenotypic reversion
terminal differentiation or phenotypic reversion [4]: promoted terminal differentiation or phenotypic reversion
terminal differentiation or phenotypic reversion (astrocytoma): promoted terminal differentiation or phenotypic reversion
terminal differentiation or phenotypic reversion (medulloblastoma): promoted terminal differentiation or phenotypic reversion
terminal differentiation or phenotypic reversion (malignant melanoma): promoted terminal differentiation or phenotypic reversion
terminal differentiation or phenotypic reversion (ovarian carcinoma): promoted terminal differentiation or phenotypic reversion
adipocyte conversion [5]: caused adipocyte conversion
tumor progression in premalignant cells ([5]; in distinction to 5-aza-2-deoxycitidine): did not cause tumor progression
hemoglobin production [6]: enhanced hemoglobin production

O=C1CCC(NC(=O)Cc2ccccc2)C(=O)N1 (centres unmarked) [3-phenylacetylamino-2,6-piperidinedione]
peak plasma level, fold less than the cytostatic concentration in tissue culture [7]: roughly 10 fold
concentration at which cytostasis was observed ([8]; MDA-MB-231): 2.0 mg/mL
effect on cultured MDA-MB-231 [8]: cytostatic effect
inhibition of the growth curve (KMCH-1): Dose-dependent inhibition
inhibition of the growth curve (KYN-1): Dose-dependent inhibition
inhibition of the growth curve (KIM-1): Dose-dependent inhibition
inhibition of the growth curve (rat Nb2 lymphoma): Dose-dependent inhibition
inhibition of the growth curve [9]: Dose-dependent inhibition
cAMP levels in the livers and tumors of treated mice relative to control mice (S180 cells): significantly elevated
efficacy in treating cancer (cancer): effective in treating cancer
solubility in water [10]: poorly soluble in water
peak plasma level [11]: approximately 0.2 mg/mL
clearance in vivo [12]: rapidly cleared in vivo

Source: patent publication US6943192B2, “Treatment regimen for administration of phenylacetylglutamine, phenylacetylisoglutamine, and/or phenylacetate” (priority 1998, dated 2005)
